Assay results from US8575135B2 (Gilead Sciences, Inc., priority 2011, dated 2013).
pEC50: −log10 of the molar value. Read-outs that look alike come from different tables or passages of the source.

Assays:
Assay in all cases: microbe, parasite or virus in culture
[1] = system: stable HCV 1a RLuc replicon cells (genotype 1a H77 replicon); assay type: cell-based; details: Hepatitis C virus; for pEC50: read-out: 1a; for EC50: read-out: 1a (nM)
[2] = system: stable HCV 1b RLuc replicon cells (genotype 1b Con1 replicon); assay type: cell-based; details: Hepatitis C virus, read-out: 1b (nM)
[3] = system: stable HCV 2a JFH-1 Rluc replicon cells (L31 present in NS5A); assay type: cell-based; details: Hepatitis C virus; for pEC50: read-out: 2a JFH; for EC50: read-out: 2a JFH (nM)
[4] = system: NS5A chimeric genotype 1b Con1 replicon with genotype 3a S52 strain NS5A gene; assay type: cell-based, HCV; details: Hepatitis C virus; for pEC50: read-out: 3a; for EC50: read-out: 3a (nM)
How it was run: (§1)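 Con1-based 3a and 4a chimeras carried a Pi-RLuc reporter and were transiently transfected into Huh-Lunet cells; the JFH-1-based 2b chimera (RLuc-Neo) was used transiently or as stable replicon cells.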

[5] = system: NS5A chimeric genotype 2a JFH-1 replicon with genotype 2a J6 strain NS5A gene (M31 present); assay type: cell-based, HCV; details: Hepatitis C virus; for pEC50: read-out: 2a J6
[6] = system: NS5A chimeric genotype 2a JFH-1 replicon with genotype 2b MD2b-1 strain NS5A gene (M31 present); assay type: cell-based, HCV; details: Hepatitis C virus; for pEC50: read-out: 2b
How it was run: as §1

[7] = system: NS5A chimeric genotype 1b Con1 replicon with genotype 4a ED43 strain NS5A gene; assay type: cell-based, HCV; details: Hepatitis C virus; for pEC50: read-out: 4a
[8] = system: 1a Pi-Rluc replicon with Q30R in genotype 1a NS5A; assay type: cell-based, HCV; details: Hepatitis C virus; for pEC50: read-out: 1a Q30R; for EC50: read-out: 1a Q30R (nM)
How it was run: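 Q30R introduced by site-directed mutagenesis into genotype 1a Pi-RLuc replicon; RNA transiently transfected into Huh-7-derived cured-51 cells.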

SMILES	pEC50 [1]	EC50 [1]	EC50 [2]	pEC50 [3]	EC50 [3]	pEC50 [4]	EC50 [4]	pEC50 [5]	EC50 ([5]; read-out: 2a J6 (s) (nM))	EC50 ([5]; read-out: 2a Jb (t) (nM))	pEC50 [6]	EC50 ([6]; read-out: 2b (s) (nM))	EC50 ([6]; read-out: 2b (t) (nM))	pEC50 [7]	EC50 ([7]; read-out: 4a (s) (nM))	EC50 ([7]; read-out: 4a (t) (nM))	pEC50 [8]	EC50 [8]
COC[C@H]1C[C@@H](c2nc3ccc4cc5c(cc4c3[nH]2)OCc2cc(-c3cnc([C@@H]4CCCN4C(=O)[C@@H](NC(=O)OC)C(C)C)[nH]3)ccc2-5)N(C(=O)[C@H](NC(=O)OC)c2ccccc2)C1 [Example LR-1, methyl{2-[2-{9-[2-(1-{2-[(methoxycarbonyl)amino]-3-methylbutanoyl}pyrrolidin-2-yl)-1H-imidazol-5-yl]-1,11-dihydroisochromeno[4′,3′:6,7]naphtho[1,2-d]imidazol-2-yl}-4-(methoxymethyl)pyrrolidin-1-yl]-2-oxo-1-phenylethyl}carbamate]	> 9.00	0.011 nM	0.016 nM	> 9.00	0.005 nM	> 9.00	0.013 nM	> 9.00	0.048 nM	0.018 nM	> 9.00	0.024 nM	0.01 nM	> 9.00	0.012 nM	0.01 nM	> 9.00	0.015 nM
COC[C@H]1C[C@@H](c2ncc(-c3ccc4c(c3)COc3cc5c(ccc6nc([C@@H]7C[C@H]8C[C@H]8N7C(=O)[C@H](NC(=O)OC)c7ccccc7)[nH]c65)cc3-4)[nH]2)N(C(=O)[C@@H](NC(=O)OC)C(C)C)C1 [Example MV]	> 9.00	0.01 nM	0.014 nM	> 9.00	0.004 nM	> 9.00	0.011 nM	> 9.00	0.034 nM	0.047 nM	> 9.00		0.041 nM	> 9.00	0.011 nM		> 9.00	0.012 nM
COC(=O)N[C@H](C(=O)N1CCC[C@H]1c1ncc(-c2ccc3c(c2)COc2cc4c(cc2-3)CCc2[nH]c([C@@H]3CCCN3C(=O)[C@@H](NC(=O)OC)C(C)C)nc2-4)[nH]1)C(C)C [Example ME]	> 9.00	0.033 nM	0.049 nM	> 9.00	0.012 nM	> 9.00	0.015 nM	8.30 to 9.00	16.1 nM	3.43 nM	> 9.00	0.701 nM	0.198 nM	> 9.00	0.029 nM	0.016 nM	7.36 to 9.00	2.51 nM
COC(=O)N[C@H](C(=O)N1CCC[C@H]1c1nc2c([nH]1)CCc1cc3c(cc1-2)OCc1cc(-c2cnc([C@@H]4CCCN4C(=O)[C@H](NC(=O)OC)c4ccccc4)[nH]2)ccc1-3)C(C)C [Example MF, methyl[1-(2-{5-[2-(1-{[(methoxycarbonyl)amino]-3-methyl-1-oxobutan-2-yl}pyrrolidin-2-yl)-1,4,5,11-tetrahydroisochromeno[4′,3′:6,7]naphtho[1,2-d]imidazol-9-yl]-1H-imidazol-2-yl}pyrrolidin-1-yl)-phenyl-1-oxoacet-2-yl]carbamate]	> 9.00	0.059 nM	0.058 nM	> 9.00	0.012 nM	> 9.00	0.011 nM	> 9.00	2.14 nM	0.476 nM	> 9.00	0.083 nM		> 9.00		0.025 nM	> 9.00	0.768 nM
